One block for each compound: values may come before it.
Columns and labels:
Cea1A (=KpFlo1A) [1] = molecular target: T1, Cea1A (=KpFlo1A) (Komagataella pastoris, UniProt A0A1B2J5V1); experiment: ITC and co-crystal structure ([…] Å); format: binding
T1 construct: gene ATY40_BA7500007; A domain, D78-E296, N-terminally His6-tagged

Cea1A (=KpFlo1A) [2] = molecular target: T1, Cea1A (=KpFlo1A); experiment: ITC and co-crystal structure ([…] Å); format: binding; settings: read-out: Cea1A•N,N′-diacetylchitobiose
Cea1A (=KpFlo1A) [3] = molecular target: T1, Cea1A (=KpFlo1A); experiment: weak binding KD (Supplementary Figure S6), validated by fluorescence titration

T1 sequence (A0A1B2J5V1 entry or part of it): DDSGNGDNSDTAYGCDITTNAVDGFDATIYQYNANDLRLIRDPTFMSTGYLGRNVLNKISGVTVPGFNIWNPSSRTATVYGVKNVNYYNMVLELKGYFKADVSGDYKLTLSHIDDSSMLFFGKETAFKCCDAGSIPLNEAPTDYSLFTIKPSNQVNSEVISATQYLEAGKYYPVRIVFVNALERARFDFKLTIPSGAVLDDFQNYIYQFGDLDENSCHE

SMILES: CC(=O)N[C@@H]1[C@@H](O)[C@H](O)[C@@H](CO)O[C@H]1O [GlcNAc]
Kd (Cea1A (=KpFlo1A) [1]): 7.67 ± 0.49 µM

Kd (Cea1A (=KpFlo1A) [2]): 13.1 ± 3.56 µM
SMILES: CC(=O)N[C@H]1[C@H](O[C@H]2[C@H](O)[C@@H](NC(C)=O)C(O)O[C@@H]2CO)O[C@H](CO)[C@@H](O)[C@@H]1O (stereo partly drawn) [N,N′-diacetylchitobiose]

Kd (Cea1A (=KpFlo1A) [3]): 2380 µM
SMILES: OC[C@H]1OC(O)[C@H](O)[C@@H](O)[C@@H]1O (stereo partly drawn) [glucose]
